Each structure is given as a SMILES string.

T1 sequence (Q07343 1-564 isoform Q07343-2): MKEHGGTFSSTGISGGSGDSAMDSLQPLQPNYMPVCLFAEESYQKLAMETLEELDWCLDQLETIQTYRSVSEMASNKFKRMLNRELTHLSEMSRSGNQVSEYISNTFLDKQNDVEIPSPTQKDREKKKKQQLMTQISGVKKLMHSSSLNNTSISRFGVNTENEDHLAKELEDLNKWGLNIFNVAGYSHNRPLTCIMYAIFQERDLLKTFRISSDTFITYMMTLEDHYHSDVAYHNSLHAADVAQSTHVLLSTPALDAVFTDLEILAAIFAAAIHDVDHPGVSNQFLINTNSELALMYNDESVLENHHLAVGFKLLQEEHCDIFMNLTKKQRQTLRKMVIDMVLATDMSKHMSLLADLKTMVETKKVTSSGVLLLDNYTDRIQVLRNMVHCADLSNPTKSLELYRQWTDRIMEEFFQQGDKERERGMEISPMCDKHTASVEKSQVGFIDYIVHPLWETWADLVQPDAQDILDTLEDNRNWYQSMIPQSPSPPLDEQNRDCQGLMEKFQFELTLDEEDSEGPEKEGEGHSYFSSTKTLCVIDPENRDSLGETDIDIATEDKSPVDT

This test concerns the target T1, PDE4B2 (Homo sapiens, UniProt Q07343).
T1 construct: purchased BPS bioscience
The test is described as follows: In vitro PDE4B2 enzyme inhibitory activity (AMP-Glo). The test is classed as biochemical. Conditions: PDE4B2 enzyme inhibition; read-out: PDE4B2 IC50.
Description: 2.1.1 Preparing stock solutions of compounds in DMSO: Compound powders were dissolved in 100% DMSO to produce 10 mM stock solutions, and oscillated in a shaker until the compounds were completely dissolved.
2.1.3 Preparing working stock solutions: a) A solution of Roflumilast (reference compound) in DMSO was diluted to 60 μM, and then serially diluted 4-fold into 10 concentration gradients. B) The solutions of the test compounds in DMSO were diluted to 200 μM, and then serially diluted 3-fold. C) A 200× positive control (60 μM Roflumilast) and a 200× vehicle control (100% DMSO) were prepared. D) The assay plate was centrifuged at 1000 rpm for 1 minute.
(1) 20 nL of compound dilution solutions were transferred with Echo 550 into each well of the assay plate.
(2) The assay plate was sealed and centrifuged at 1000 rpm for 1 minute.
(3) 2×PDE4B2/PDE4D2 was prepared in an ice-cold PDE assay buffer.
(4) 2 μL of 2×PDE4B2/PDE4D2 was added to each well of the assay plate prepared in step 2.
(5) The assay plate was sealed and allowed to equilibrate at room temperature for 10 minutes.
(6) 2× Cyclic-3′,5′-AMP was prepared in a PDE assay buffer.
7) 2 μL of 2× Cyclic-3′,5′-AMP (prepared in step 6) was added to each well of the assay plate (prepared in step 5) to initiate the reaction. The plate was incubated at room temperature for 60 minutes.
8) 4 μL AMP-Glo Reagent I was added, and the plate was incubated at room temperature for 60 minutes.
9) 8 μL AMP detection reagent was added. The plate was incubated at room temperature for 60 minutes.
10) The RLU signal was read on an Envision 2105 plate reader.
Take `[O-][S+]1CCc2nc(N3CC(O)(c4ccc(Cl)cc4)C3)nc(NC3(CO)CCC3)c21` (racemic) [Compound 1, (R/S)-2-(3-(4-chlorophenyl)-3-hydroxyazetidin-1-yl)-4-((1-(hydroxymethyl)cyclobutyl)amino)-6,7-dihydrothieno[3,2-d]pyrimidine 5-oxide]: the IC50 fell in the range of 2 to 5 nM.
Take `COc1ccc(C2(O)CN(c3nc4c(c(NC5(CO)CCC5)n3)[S+]([O-])CC4)C2)cc1` (racemic) [Compound 2, (R/S)-2-(3-hydroxy-3-(4-methoxyphenyl)azetidin-1-yl)-4-((1-(hydroxymethyl)cyclobutyl)amino)-6,7-dihydrothieno[3,2-d]pyrimidine 5-oxide]: the 50% inhibitory concentration (IC50) lay within 2 to 5 nM.
On to `COc1cc(C2(O)CN(c3nc4c(c(NC5(CO)CCC5)n3)[S+]([O-])CC4)C2)ccc1Cl` (racemic) [Compound 3, (R/S)-2-(3-(4-chloro-3-methoxyphenyl)-3-hydroxyazetidin-1-yl)-4-((1-(hydroxymethyl)cyclobutyl)amino)-6,7-dihydrothieno[3,2-d]pyrimidine 5-oxide], for which the IC50 is not above 2 nM.
With `COc1ccc(C2(O)CN(c3nc4c(c(NC5(CO)CCC5)n3)[S+]([O-])CC4)C2)cc1Cl` (racemic) [Compound 4, (R/S)-2-(3-(3-chloro-4-methoxyphenyl)-3-hydroxyazetidin-1-yl)-4-((1-(hydroxymethyl)cyclobutyl)amino)-6,7-dihydrothieno[3,2-d]pyrimidine 5-oxide], the IC50 was in the range of 2 to 5 nM.
The value for `[O-][S+]1CCc2nc(N3CC(O)(c4ccc(C(F)(F)F)cc4)C3)nc(NC3(CO)CCC3)c21` (racemic) [Compound 7, (R/S)-2-(3-hydroxy-3-(4-(trifluoromethyl)phenyl)azetidin-1-yl)-4-((1-(hydroxymethyl)cyclobutyl)amino)-6,7-dihydrothieno[3,2-d]pyrimidine 5-oxide] was 2 to 5 nM.
The value for `COc1ccc(C2(O)CN(c3nc4c(c(Nc5ccc(CC(=O)O)cc5)n3)[S+]([O-])CC4)C2)cc1Cl` (racemic) [Compound 8, (R/S)-2-(4-((2-(3-(3-chloro-4-methoxyphenyl)-3-hydroxyazetidin-1-yl)-5-oxido-6,7-dihydrothieno[3,2-d]pyrimidin-4-yl)amino)phenyl)acetic acid] was 2 to 5 nM; that for `[O-][S+]1CCc2nc(N3CC=C(c4ccc(OC(F)F)cc4)C3)nc(NC3(CO)CCC3)c21` (racemic) [Compound 14, (R/S)-2-(3-(4-(difluoromethoxy)phenyl)-2,5-dihydro-1H-pyrrol-1-yl)-4-((1-(hydroxymethyl)cyclobutyl)amino)-6,7-dihydrothieno[3,2-d]pyrimidine 5-oxide] was 2 to 5 nM.
In the case of `[O-][S+]1CCc2nc(C3=CCN(c4ncc(Cl)cn4)CC3)nc(NC3(CO)CCC3)c21` (racemic) [Compound 16, (R/S)-2-(1-(5-chloropyrimidin-2-yl)-1,2,3,6-tetrahydropyridin-4-yl)-4-((1-(hydroxymethyl)cyclobutyl)amino)-6,7-dihydrothieno[3,2-d]pyrimidine 5-oxide], the IC50 was in the range of 2 to 5 nM.
As to `COc1ccc2c(c1)CN(c1nc3c(c(NC4(CO)CCC4)n1)[S+]([O-])CC3)C2` (racemic) [Compound 26, (R/S)-4-((1-(hydroxymethyl)cyclobutyl)amino)-2-(5-methoxyisoindolin-2-yl)-6,7-dihydrothieno[3,2-d]pyrimidine 5-oxide], the IC50 is 2 to 5 nM.
`N#Cc1ccc2c(c1)CN(c1nc3c(c(NC4(CO)CCC4)n1)[S+]([O-])CC3)C2` (racemic) [Compound 27, (R/S)-2-(4-((1-(hydroxymethyl)cyclobutyl)amino)-5-oxido-6,7-dihydrothieno[3,2-d]pyrimidin-2-yl)isoindoline-5-carbonitrile]: the IC50 fell in the range of 2 to 5 nM.
The value for `CC(C)(O)c1ccc2c(c1)CN(c1nc3c(c(NC4(CO)CCC4)n1)[S+]([O-])CC3)C2` (racemic) [Compound 29, (R/S)-4-((1-(hydroxymethyl)cyclobutyl)amino)-2-(5-(2-hydroxypropan-2-yl)isoindolin-2-yl)-6,7-dihydrothieno[3,2-d]pyrimidine 5-oxide] was not above 2 nM.
